Experiment [1] can be described thus: cells. Type of experiment: functional, cell-based.
The nature of experiment [2]: cells. It is filed as functional, cell-based. This is another data set of the same source.
Experiment [3] concerns the target T1, Trace amine-associated receptor 1 (Homo sapiens, UniProt Q96RJ0).
T1 sequence (Q96RJ0 whole entry): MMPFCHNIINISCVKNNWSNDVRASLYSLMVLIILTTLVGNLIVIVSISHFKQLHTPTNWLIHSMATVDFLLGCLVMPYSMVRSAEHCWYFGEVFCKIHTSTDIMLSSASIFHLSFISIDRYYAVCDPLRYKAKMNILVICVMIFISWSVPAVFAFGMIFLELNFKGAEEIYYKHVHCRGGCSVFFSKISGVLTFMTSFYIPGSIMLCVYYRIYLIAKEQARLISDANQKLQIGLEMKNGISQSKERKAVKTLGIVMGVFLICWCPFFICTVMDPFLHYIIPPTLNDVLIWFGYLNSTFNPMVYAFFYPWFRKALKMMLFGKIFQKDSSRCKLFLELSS
Nature of the experiment: Counterscreen for agonists of the human trace amine associated receptor 1 (hTAAR1): Fluorescence-based cell-based high throughput dose response assay to identify hTAAR1 agonist that also desensitize TAAR1 receptor response. It is filed as functional.

The target in experiment [4] is T1, Trace amine-associated receptor 1. Description: Fluorescence-based cell-based high throughput dose response assay to identify agonists of the human trace amine associated receptor 1 (TAAR1). It is filed as functional.
The target of experiment [5] is Disintegrin and metalloproteinase domain-containing protein 17 (Homo sapiens, UniProt P78536). Nature of the experiment: exosite inhibitors of ADAM17, dose response, biochemical (AID 743260).
Chain of Disintegrin and metalloproteinase domain-containing protein 17 (P78536 whole entry, the tested form may be a part): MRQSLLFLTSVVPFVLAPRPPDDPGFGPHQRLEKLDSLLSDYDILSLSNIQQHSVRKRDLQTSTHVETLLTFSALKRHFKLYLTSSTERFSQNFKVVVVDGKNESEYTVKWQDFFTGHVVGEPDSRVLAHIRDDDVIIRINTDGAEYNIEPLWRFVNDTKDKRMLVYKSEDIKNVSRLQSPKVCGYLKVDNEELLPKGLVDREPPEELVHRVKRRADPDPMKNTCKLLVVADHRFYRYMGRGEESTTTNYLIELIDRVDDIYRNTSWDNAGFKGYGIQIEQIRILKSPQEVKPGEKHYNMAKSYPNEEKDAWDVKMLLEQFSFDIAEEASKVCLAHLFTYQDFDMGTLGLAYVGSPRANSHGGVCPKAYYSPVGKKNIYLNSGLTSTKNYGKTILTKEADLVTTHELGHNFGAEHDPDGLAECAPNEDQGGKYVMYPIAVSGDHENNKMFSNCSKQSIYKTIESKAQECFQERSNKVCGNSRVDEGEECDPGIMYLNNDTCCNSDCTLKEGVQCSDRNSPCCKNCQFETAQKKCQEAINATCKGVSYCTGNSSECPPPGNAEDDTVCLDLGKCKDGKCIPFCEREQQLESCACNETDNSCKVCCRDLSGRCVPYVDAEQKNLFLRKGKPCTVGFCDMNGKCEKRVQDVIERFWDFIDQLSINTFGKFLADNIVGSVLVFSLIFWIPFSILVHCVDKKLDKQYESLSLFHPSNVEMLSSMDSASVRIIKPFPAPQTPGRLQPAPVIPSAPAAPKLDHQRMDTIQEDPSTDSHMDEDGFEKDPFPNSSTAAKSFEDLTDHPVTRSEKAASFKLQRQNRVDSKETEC
The target in another experiment is Albumin (Bos taurus, UniProt P02769). Nature of the experiment: Counterscreen for inhibitors of T-cell receptor (TCR)-CD3 interaction: Fluorescence-based biochemical high throughput dose response assay to identify inhibitors of T-cell receptor (TCR)-CD3 interaction using a TAMRA-labeled BSA probe. Type of experiment: functional. Background: A counterscreen serves to expose hits that act by an unwanted route or on another target.
Chain of Albumin (P02769 whole entry): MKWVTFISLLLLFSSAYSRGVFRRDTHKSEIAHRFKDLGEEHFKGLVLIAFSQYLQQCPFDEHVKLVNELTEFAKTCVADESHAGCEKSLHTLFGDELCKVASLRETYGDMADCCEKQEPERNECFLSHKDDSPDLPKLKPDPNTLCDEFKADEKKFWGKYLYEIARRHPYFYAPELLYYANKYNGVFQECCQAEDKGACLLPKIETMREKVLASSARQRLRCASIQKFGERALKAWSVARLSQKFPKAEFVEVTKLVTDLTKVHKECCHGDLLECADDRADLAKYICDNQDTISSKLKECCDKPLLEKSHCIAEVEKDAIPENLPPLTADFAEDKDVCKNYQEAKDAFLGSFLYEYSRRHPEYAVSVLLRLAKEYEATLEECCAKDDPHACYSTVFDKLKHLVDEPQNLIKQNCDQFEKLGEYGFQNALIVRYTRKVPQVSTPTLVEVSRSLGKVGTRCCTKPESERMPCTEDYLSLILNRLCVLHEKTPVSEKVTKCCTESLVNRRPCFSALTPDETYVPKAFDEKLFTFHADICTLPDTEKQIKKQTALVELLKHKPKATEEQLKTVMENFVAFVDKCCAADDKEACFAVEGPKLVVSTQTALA

The nature of experiment [6]: ADAM10 protease inhibitors, dose response, selectivity assay for ADAM17 exosite inhibitor project, biochemical, FRET peptide substrate, recombinant human ADAM10 (AID 743259).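 Also: ADAM10 enzyme cleaving a FRET peptide substrate.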
The target in the next experiment is T2, Leucine aminopeptidase (Plasmodium falciparum 3D7, UniProt Q8IL11).
T2 sequence (Q8IL11 whole entry): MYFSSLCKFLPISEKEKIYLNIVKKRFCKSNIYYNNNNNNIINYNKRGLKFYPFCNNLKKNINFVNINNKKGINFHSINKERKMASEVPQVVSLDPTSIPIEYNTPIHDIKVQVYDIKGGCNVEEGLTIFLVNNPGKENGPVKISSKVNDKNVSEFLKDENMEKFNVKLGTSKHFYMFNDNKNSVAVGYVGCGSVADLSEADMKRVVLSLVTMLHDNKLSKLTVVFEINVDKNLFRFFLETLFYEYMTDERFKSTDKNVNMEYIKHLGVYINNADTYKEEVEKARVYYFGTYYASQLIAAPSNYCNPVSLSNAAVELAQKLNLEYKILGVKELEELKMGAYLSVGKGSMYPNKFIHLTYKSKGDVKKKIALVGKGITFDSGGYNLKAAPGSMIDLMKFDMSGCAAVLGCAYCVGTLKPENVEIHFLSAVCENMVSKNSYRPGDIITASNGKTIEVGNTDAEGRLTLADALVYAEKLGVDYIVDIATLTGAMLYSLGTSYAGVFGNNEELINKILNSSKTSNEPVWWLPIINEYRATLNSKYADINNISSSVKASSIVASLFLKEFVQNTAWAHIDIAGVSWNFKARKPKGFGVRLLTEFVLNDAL
Description: P. falciparum M17LAP inhibitors, primary screen, biochemical, fluorogenic H-Leu-NHMec substrate, 1536-well (AID 1619). It is filed as functional.

A short description of experiment [7]: human group III sPLA2 inhibitors, dose response, biochemical, QFRET, IC50 (AID 743457).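 Also: green fluorescence rise as the enzyme cleaves BODIPY PC-A2 in liposomes; potency for inhibition of the enzyme.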
Experiment [8] is described as follows: miR-122 activators in hepatoma reporter cells, dose response, cell-based, Huh7 psiCHECK-miR122, Renilla luciferase, cherry-picked (AID 651956).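 Also: huh7 hepatoma cells stably carrying a psiCHECK-2 miR-122 sensor plasmid; renilla luciferase signal reporting endogenous miR-122 activity after 48 h compound exposure.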 It is filed as functional.
Experiment [9] is described as follows: HEK293T cytotoxicity, dose response, cytotoxicity control for miR-122 modulator project, cell-based, inhibitor set, cherry-pick, set 2 (AID 720697). It is filed as functional.
For the next experiment, the target named is Melanocortin receptor 4 (Homo sapiens, UniProt P32245). It is filed as functional, cell-based.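 Also: Cell-based assay with luminescence read-out, confirmatory dose-response testing for agonist activity of biased ligands at MC4R; human U2OS cells with tagged receptor and beta-arrestin; potency of agonists that increase receptor coupling to beta-arrestin.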
Chain of Melanocortin receptor 4 (P32245 whole entry): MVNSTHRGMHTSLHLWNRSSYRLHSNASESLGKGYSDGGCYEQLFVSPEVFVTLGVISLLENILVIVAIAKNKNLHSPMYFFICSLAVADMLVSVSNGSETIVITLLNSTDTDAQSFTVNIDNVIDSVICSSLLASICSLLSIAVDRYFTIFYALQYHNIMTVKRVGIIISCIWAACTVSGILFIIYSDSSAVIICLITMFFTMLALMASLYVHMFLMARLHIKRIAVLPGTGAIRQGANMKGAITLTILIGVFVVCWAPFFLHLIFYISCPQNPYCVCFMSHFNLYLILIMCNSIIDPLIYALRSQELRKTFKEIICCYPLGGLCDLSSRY
Experiment [10] in a line: HEK293T cytotoxicity, dose response, cytotoxicity control for miR-122 modulator project, cell-based, activator set, cherry-pick (AID 720690).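 Also: HEK293T human cells scored for general mammalian cytotoxicity.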 Type of experiment: functional.
Experiment [11] in a line: Shn3 3'UTR reporter inhibitors, dose response, cell-based, Clone20 osteoblasts, firefly luciferase, cherry-picked (AID 624132).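 Also: firefly luciferase luminescence from reporter carrying the Shn3 3'UTR in osteoblasts.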 It is filed as functional.
The nature of experiment [12]: T. cruzi growth inhibition in host cells, dose response, cell-based, plate reader, dry powder, set 2 (AID 652275). Type of experiment: functional.
The target of experiment [13] is T3, Fatty acid synthase (Homo sapiens, UniProt P49327). Nature of the experiment: FAS thioesterase domain inhibitors, dose response, biochemical, kinetic fluorescence intensity (AID 624326).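 Also: rate of fluorescence rise from hydrolysis of a fluorogenic O-methyl fluorescein ester substrate.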 It is filed as functional.
T3 sequence (P49327 whole entry, the tested form may be a part): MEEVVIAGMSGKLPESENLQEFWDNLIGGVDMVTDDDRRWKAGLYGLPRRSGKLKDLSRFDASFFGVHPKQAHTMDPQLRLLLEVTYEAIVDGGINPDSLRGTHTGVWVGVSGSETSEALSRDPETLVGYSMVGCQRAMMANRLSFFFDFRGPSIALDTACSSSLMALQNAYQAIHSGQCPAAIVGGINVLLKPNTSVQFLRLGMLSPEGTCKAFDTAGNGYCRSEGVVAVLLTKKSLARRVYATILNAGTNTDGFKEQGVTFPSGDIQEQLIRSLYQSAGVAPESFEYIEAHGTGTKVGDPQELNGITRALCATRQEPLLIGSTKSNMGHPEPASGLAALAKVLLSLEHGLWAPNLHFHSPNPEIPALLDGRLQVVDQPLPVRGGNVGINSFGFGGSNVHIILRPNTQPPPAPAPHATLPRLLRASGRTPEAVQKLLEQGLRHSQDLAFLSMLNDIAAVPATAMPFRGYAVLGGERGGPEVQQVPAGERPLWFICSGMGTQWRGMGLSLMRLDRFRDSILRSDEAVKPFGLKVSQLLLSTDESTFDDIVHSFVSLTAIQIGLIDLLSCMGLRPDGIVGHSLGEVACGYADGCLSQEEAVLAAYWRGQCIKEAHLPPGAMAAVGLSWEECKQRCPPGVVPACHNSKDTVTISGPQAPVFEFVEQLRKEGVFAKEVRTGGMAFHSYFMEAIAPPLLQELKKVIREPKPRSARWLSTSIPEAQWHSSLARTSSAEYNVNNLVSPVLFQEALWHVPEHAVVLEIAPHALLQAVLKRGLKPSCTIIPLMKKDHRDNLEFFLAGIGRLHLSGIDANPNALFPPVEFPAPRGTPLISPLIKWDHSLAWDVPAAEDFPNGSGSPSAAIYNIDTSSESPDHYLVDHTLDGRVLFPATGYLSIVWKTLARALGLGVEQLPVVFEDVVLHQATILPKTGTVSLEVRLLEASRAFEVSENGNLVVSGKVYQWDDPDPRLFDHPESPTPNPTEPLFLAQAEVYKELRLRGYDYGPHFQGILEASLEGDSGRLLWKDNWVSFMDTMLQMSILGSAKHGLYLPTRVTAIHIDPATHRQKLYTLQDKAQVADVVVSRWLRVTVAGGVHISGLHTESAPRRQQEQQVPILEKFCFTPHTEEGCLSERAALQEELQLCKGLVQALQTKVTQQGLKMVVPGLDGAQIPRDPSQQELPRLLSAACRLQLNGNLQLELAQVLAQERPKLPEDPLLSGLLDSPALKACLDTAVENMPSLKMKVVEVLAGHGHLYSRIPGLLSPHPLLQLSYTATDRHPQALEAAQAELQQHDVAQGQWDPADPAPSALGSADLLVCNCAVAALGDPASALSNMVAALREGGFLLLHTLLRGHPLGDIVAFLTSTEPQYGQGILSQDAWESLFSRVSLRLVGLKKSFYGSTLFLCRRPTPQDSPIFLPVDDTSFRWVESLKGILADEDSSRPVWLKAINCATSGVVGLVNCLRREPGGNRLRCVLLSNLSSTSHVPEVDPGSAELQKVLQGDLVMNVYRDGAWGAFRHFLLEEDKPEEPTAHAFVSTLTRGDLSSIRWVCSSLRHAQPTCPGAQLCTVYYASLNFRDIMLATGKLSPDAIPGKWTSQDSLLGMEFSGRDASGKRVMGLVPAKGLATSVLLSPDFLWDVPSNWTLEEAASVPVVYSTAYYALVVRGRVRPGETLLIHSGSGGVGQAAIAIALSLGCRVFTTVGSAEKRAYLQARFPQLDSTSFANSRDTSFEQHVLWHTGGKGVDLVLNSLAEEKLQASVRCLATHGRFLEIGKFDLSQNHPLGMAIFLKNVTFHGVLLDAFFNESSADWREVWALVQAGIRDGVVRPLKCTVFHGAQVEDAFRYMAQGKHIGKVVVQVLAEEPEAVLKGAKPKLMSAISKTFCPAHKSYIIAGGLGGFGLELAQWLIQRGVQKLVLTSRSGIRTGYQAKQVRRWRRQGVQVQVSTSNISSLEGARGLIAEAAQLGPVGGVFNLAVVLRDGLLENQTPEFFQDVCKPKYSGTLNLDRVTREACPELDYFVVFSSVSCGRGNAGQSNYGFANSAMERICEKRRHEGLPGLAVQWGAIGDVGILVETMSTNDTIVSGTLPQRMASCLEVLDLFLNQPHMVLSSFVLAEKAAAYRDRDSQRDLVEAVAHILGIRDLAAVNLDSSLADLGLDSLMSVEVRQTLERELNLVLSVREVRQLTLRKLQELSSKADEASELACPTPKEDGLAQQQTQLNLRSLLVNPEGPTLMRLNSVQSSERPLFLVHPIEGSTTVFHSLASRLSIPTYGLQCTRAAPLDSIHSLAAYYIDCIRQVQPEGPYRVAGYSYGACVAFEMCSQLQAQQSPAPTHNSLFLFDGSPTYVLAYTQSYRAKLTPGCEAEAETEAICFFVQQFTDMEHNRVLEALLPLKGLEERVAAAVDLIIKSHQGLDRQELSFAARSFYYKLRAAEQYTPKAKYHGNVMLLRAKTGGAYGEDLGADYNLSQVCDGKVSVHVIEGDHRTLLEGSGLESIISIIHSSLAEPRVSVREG
The target of experiment [14] is T3, Fatty acid synthase. Description: FAS thioesterase domain inhibitors, dose response, biochemical, endpoint fluorescence intensity, uHTS hits (AID 624327).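 Also: fluorescence from hydrolysis of an O-methyl fluorescein acyl ester substrate by the enzyme.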 It is filed as functional.

Here are results for eight molecules from ChEMBL document CHEMBL1201862, “PubChem BioAssay data set” (2004).

Structures are written as SMILES. Activity calls are given as the source filed them. Where only a bound is given, the exact number is not on record here.

Usually IC50 stands for the concentration needed to halve the response being measured. Usually EC50 stands for the concentration that produces a half-maximal response. For `Cc1ccccc1-n1c(=O)cc(N2CCc3ccccc3C2)[nH]c1=O`, the values for the IC50 (in the experiment “cells [1]”; in experiment [3]) were > 29.9 µM (inactive) and 7.07 µM (active), respectively. In addition, the EC50 was > 29.9 µM (inactive) in “cells [2]” and 2.59 µM (active) in experiment [4].

`COc1ccccc1N(C)S(=O)(=O)c1ccc(C(=O)NNC(=O)c2ccccc2O)cc1`: the IC50 in [5] was > 69.5 µM (inactive); at Albumin, > 94.1 µM (inactive); in [6], > 69.5 µM (inactive).

With `CC1=C(C)CC(C(=O)NCCc2ccccc2)C(C(=O)O)C1` (stereo not drawn), the IC50 in the experiment “cells [1]” is > 29.9 µM (inactive); in experiment [3], 7.2 µM (active); on Leucine aminopeptidase it was 46 µM (active). The EC50 in “cells [2]” was > 29.9 µM (inactive); in [4], 1.4 µM (active).

With `O=C1c2ccccc2C(=O)c2c(Nc3ccc(CCO)cc3)ccc(O)c21`, the IC50 in experiment [7] is > 122 µM (inactive).

As usually defined, the AC50 is the concentration at which the activity in the assay is half-maximal. With `CCN1CCN(Cc2ccc(NC(=O)c3cc(NC(=O)c4cc5cccc(OC)c5o4)cc(OC)c3)cc2C(F)(F)F)CC1`, the AC50 in experiment [8] was 12.1 µM (active); in experiment [9], 4.28 µM (active); in experiment [10], 8.76 µM (active); in [11] it was 9.77 µM (active). Moreover, at Melanocortin receptor 4, the EC50 was > 89.2 µM (inactive).

On to `C[C@H]1CN([C@@H](C)CO)C(=O)c2cccc(NC(=O)c3ccncc3)c2O[C@@H]1CN(C)Cc1ccccc1C(F)(F)F`, for which the AC50 in [12] was 0.0342 µM (active).

Regarding `C[C@@H]1CN([C@@H](C)CO)S(=O)(=O)c2ccc(/C=C/c3ccccc3)cc2O[C@@H]1CN(C)C(=O)NC1CCCCC1`, in experiment [9], the AC50 is 0.533 µM (active).

As to `O=C(N/N=C/c1cc([N+](=O)[O-])cc([N+](=O)[O-])c1O)/C(=C\c1cccs1)NC(=O)c1ccccc1`, the figures for the half-maximal inhibitory concentration (IC50) at Fatty acid synthase [13], at Albumin and at Fatty acid synthase [14] were 4.89 µM (active), > 94.1 µM (inactive) and 6.3 µM (active), respectively.
